Data from patent US6537797B1, “Compositions and methods useful in bioremediation of polychlorinated biphenyls” (Indiana University, Advanced Research and Technology …, priority 1999, dated 2003).

What was measured:
Type in all cases: cell-based
[1] = tested on: bacterial strain SK-2; test: Growth of SK-2 on 3,4-DCBP as sole carbon source and its degradation
Description: (§1) Growth of bacterial strains SK-1 and SK-2 on 2,3-DCBP and 3,4-DCBP, respectively, as a sole carbon source was determined using direct counting and an acridine orange staining method. This method involves filtering 0.1 milliliters of culture through a 0.45 micron filter, staining the cells on the filter using a 0.01% acridine orange solution for 3 to 5 minutes, and counting cells on the filter using an epifluorescent microscope at a 1000′ magnification. SK-1+ contained 2,3-dichlorobiphenyl; SK-2+ contained 3,4-dichlorobiphenyl. Control bottles in each case were identical to experimental bottles in that they were inoculated with the cultures but they lacked the appropriate congener. The initial concentration of PCBs was 500 ppm (w/v). The cell numbers of the two isolates increased by 1.5 orders of magnitude in the presence of the DCBPs used as a growth substrate. The degradation of 2,3-DCBP by SK-1 and production of 2,3-dichlorobenzoate is depicted in FIG. 3. The degradation of 3,4-DCBP by SK-2 and production of 3,4-dichlorobenzoate is depicted in FIG. 4.
(§2) The concentrations of chlorobenzoates and dichlorobiphenyls were assessed after hexane extraction of bottles using gas chromatography analysis of the extracts with an electron capture detector. Chlorobenzoates were analyzed using standard columns after derivitization with pentafluorobenzyl bromide. Dichlorobiphenyls were analyzed using a DB-5 column (J&W Scientific, Fulsom, Calif.).
(§3) The data shown in FIGS. 2, 3 and 4 illustrates the nearly complete disappearance of both 2,3-DCBP (0.38 mM initial concentration, FIG. 3) and 3,4-DCBP (0.3 mM initial concentration, FIG. 4) within 10 days of incubation. Duplicate bottles were used and error bars of the pictures represent a standard deviation. Controls contained DCBPs but lacked inoculum. DCBPs were supplied in the bottles using the non-biodegradable carrier heptamethylnonane (HMN).

[2] = tested on: bacterial strain SK-3; test: Growth substrate tests in liquid medium; details: initial concentration 100 parts per million, except chlorobenzoate 2-3 millimolar
Description: (§4) The ability of the four isolated strains to grow on selected polychlorobiphenyls as a sole carbon source was assessed.
(§5) (All tests were conducted in a liquid medium. The initial concentration of the organic substrate was 100 parts per million, except chlorobenzoate, which was 2-3 millimolar).

[3] = tested on: bacterial strain SK-4; test: Growth substrate tests in liquid medium; details: initial concentration 100 parts per million, except chlorobenzoate 2-3 millimolar
Description: as §4, §5

[4] = tested on: bacterial strain SK-3; test: Biodegradation of commercial PCB mixture Aroclor 1242 as sole carbon source; details: 12 days; benzoate-grown washed cells; no cosubstrate; GC
Description: In addition to testing the ability to use a single PCB congener as a sole carbon source (as described in Example 1), several strains of the isolated bacteria of the invention (SK-1, SK-2, SK-3 and SK-4) were tested for the ability to degrade low chlorinated PCB congeners (dichlorobiphenyls and trichlorobiphenyls) of a commercial PCB mixture in the absence of biphenyl or any other cometabolic substrate as a carbon source.
The ability of SK-1, SK-2, SK-3 and SK-4 to degrade Aroclor® 1242 was assessed using cells which were grown on benzoate and then washed. Briefly, the cells were washed by centrifuging the cells, decanting the supernatant, resuspending the cells in fresh medium, then pelleting the cells using centrifugation again and decanting the supernatant to remove residual benzoate and other carbon sources. Aroclor® 1242 was the sole carbon source provided to the cells.
The degradation of Aroclor® 1242 by SK-3 was monitored using gas is chromatography analysis and the results are depicted in FIG. 12. […] The degraded PCB congeners were identified as follows: Peak #1 was 2,5-DCBP or 2,4-DCBP; Peak #2 was 2,3′-DCBP; and Peak #3 was 2,4′-DCBP. No significant degradation of any PCB congener containing three or more chlorine atoms was observed.

[5] = tested on: bacterial strain SK-1; test: Growth substrate tests in liquid medium; details: initial concentration 100 parts per million, except chlorobenzoate 2-3 millimolar
Description: as §4, §5

[6] = tested on: bacterial strain SK-2; test: Growth substrate tests in liquid medium; details: initial concentration 100 parts per million, except chlorobenzoate 2-3 millimolar
Description: as §4, §5

[7] = tested on: bacterial strain SK-1; test: Growth of SK-1 on 2,3-DCBP as sole carbon source and its degradation
Description: as §1, §2, §3

[8] = tested on: consortia of bacterial strains from PCB-contaminated tertiary lagoon sludge; test: Degradation of selected PCB congeners in aerobic enrichment cultures; details: 100 ppm (w/v) mixture of five PCB congeners, with or without biphenyl cosubstrate; hexane extraction 45 days after inoculation, GC
Source text: A consortia of bacterial strains was isolated from tertiary lagoon sludge that was contaminated with PCBs for over twenty five years. The sludge was collected from the Winston-Thomas sewage treatment plant in Bloomington, Ind. PCB-degrading strains were enriched using a minimal medium comprising a 100 ppm (w/v) mixture of the following five PCB congeners as the carbon source: 2,3-dichlorobiphenyl (DCBP), 2,4,4′-trichlorobiphenyl (TCBP), 2,4,6-trichlorobiphenyl, 2,2′,5,5′-tetrachlorobiphenyl, and 2,2′,4,4′,5,5′-hexachlorobiphenyl. Biphenyl was also added to the medium in some samples as an additional carbon source to stimulate the cometabolism of biphenyl and the PCBs. About 30-35 milliliters of the medium was inoculated with 5-10 milliliters of PCB-contaminated sludge and incubated in 160-mL serum bottles sealed with Teflon-coated stoppers. The bottles were incubated horizontally on a shaker table at room temperature. The headspace in the bottles was purged with air once a week to maintain aerobic conditions. Every 4-6 weeks, 10% of the culture was transferred to fresh medium. […] The concentrations of the PCB congeners were determined by extracting bottles with hexane 45 days after inoculation (a single bottle extraction), and analyzing hexane extracts by gas chromatography using a DB-5 column (J&W Scientific, Folsum, Calif.) and an electron capture detector. The results from this analysis are depicted in FIG. 1.

Compound | Time at which concentration of chlorobenzoate produced from 3,4-DCBP by SK-2 reached a maximum, then decreased ([1]; 0.3 mM 3,4-DCBP initial concentration) [h] | Growth of SK-3 on the substrate as sole carbon source [2] | Growth of SK-4 on the substrate as sole carbon source [3] | Degradation of PCB congeners of Aroclor 1242 by SK-3 [4] | Growth of SK-1 on the substrate as sole carbon source [5] | Growth of SK-2 on the substrate as sole carbon source [6] | Time to nearly complete disappearance ([1]; SK-2, 0.3 mM initial concentration, supplied in heptamethylnonane) [days] | Increase of cell numbers in the presence of the DCBP as growth substrate ([1]; SK-2, initial concentration 500 ppm (w/v), acridine orange direct counting) | Time to nearly complete disappearance ([7]; SK-1, 0.38 mM initial concentration, supplied in heptamethylnonane) [days] | Increase of cell numbers in the presence of the DCBP as growth substrate ([7]; SK-1, initial concentration 500 ppm (w/v), acridine orange direct counting) | Degradation of PCB congener in aerobic enrichment cultures [8] | Production of chlorobenzoate from 2,3-DCBP by SK-1 ([7]; 0.38 mM 2,3-DCBP initial concentration)
O=C(O)c1ccc(Cl)c(Cl)c1 [3,4-dichlorobenzoate] | 90 | No | No |  |  |  |  |  |  |  |  | 
Clc1cccc(-c2ccccc2Cl)c1 [2,3′-DCBP] |  | No | No | degraded | No | No |  |  |  |  |  | 
Clc1ccc(-c2ccccc2)cc1Cl [3,4-DCBP, 3,4-dichlorobiphenyl] |  | No | No |  | No | exhibited growth and Yes | ≤ 10 | 1.5 orders of magnitude |  |  |  | 
Clc1cccc(-c2ccccc2)c1Cl [2,3-DCBP, 2,3-dichlorobiphenyl] |  | No | No |  | exhibited growth and Yes | No |  |  | ≤ 10 | 1.5 orders of magnitude | degraded in bottles which lacked a cometabolic substrate | 
O=C(O)c1cccc(Cl)c1Cl [2,3-dichlorobenzoate] |  | No | No |  | No | No |  |  |  |  |  | almost stoichiometric
